In US20250064813A1, “STABLE LIQUID PHARMACEUTICAL FORMULATION” (GENUV Inc., priority 2022, published 2025):

Experiment: In-vial stability, 2 weeks: HPLC content and total impurities
Type: physicochemical
Description: The glass vials containing the compositions prepared in Example 4-1 were stored for 2 weeks under the two conditions below, and stability study was performed.
Aliquots of the compositions in the glass vial were taken, and the content of Compound 1 and total impurities were measured with HPLC. Measurements were performed in duplicates, and the average value was reported. Impurities were quantified by percentage area relative to the main Compound 1 peak and based on Relative Response Factor (RRF) of 1.0. As a positive control, the dried powder of Compound 1 was used and tested in the same way.

- Compound 1 Content (%) (t = 0): 100.5%
- Total Impurities (%) (t = 0): 0.15%
- Compound 1 Content (%) (t = 2w (40° C./75% RH)): 100.3%
- Total Impurities (%) (t = 2w (40° C./75% RH)): 0.14%
Compound: CC(=O)Nc1cccc(-n2c(=O)n(C3CC3)c(=O)c3c(Nc4ccc(I)cc4F)n(C)c(=O)c(C)c32)c1 [Compound 1, N-(3-{3-Cyclopropyl-5-[(2-fluoro-4-iodophenyl)amino]-6,8-dimethyl-2,4,7-trioxo-3,4,6,7-tetrahydropyrido[4,3-d]pyrimidin-1 (2H)-yl}phenyl) acetamide]
